# Like-named read-outs stand apart in the source and are kept apart here.
# Details: for AUC0–t, geometric LSM value, + rezafungin / AUC0–∞, geometric LSM value, + rezafungin / Cmax, geometric LSM value, + rezafungin / AUC0–t, geometric LSM value, alone / AUC0–∞, geometric LSM value, alone / Cmax, geometric LSM value, alone: Study 1, healthy subjects, plasma, LC-MS/MS, NCA; for Change in exposure of the oral probe drug on coadministration of i.v. rezafungin vs dosing alone: 90% CIs of GMRs of Cmax, AUC0–t, AUC0–∞ within 80 to […]; for Observation, Cmax (change with rezafungin relative to drug alone) / Observation, AUC (change with rezafungin relative to drug alone): class symbol; for Observation, AUC (change with rezafungin relative to drug alone): AUC0–t and AUC0–∞ unless otherwise noted; for AUC0–t, geometric mean ratio (drug + rezafungin / drug alone) / AUC0–∞, geometric mean ratio (drug + rezafungin / drug alone) / Cmax, geometric mean ratio (drug + rezafungin / drug alone): geometric LSM ratio x 100, ANOVA
# Experimental: Both were phase 1, single-center, open-label, crossover inpatient studies that were conducted in the United States in healthy adults (study 1, aged 26 to 55 years; study 2, aged 21 to 59 years). The studies were compliant with the International Council for Harmonisation of Technical Requirements for Pharmaceuticals for Human Use E6 guideline for good clinical practice ([54]) and the Declaration of Helsinki. The study protocols were approved by the institutional review board associated with the study site, and all subjects provided written informed consent.
# After screening, subjects were admitted to the clinical research unit (CRU) prior to the first dose of rezafungin (from day −22) and were discharged from the CRU on day 22. Nine oral substrate drugs were administered as part of a cocktail containing two or more drugs once before and once after receiving rezafungin on a schedule designed to allow the washout of the drugs in the cocktail between doses and limit interactions with other drugs (Fig. 4A). […] A loading dose of rezafungin for injection (600 mg) was administered over 1 h on day 1, followed by two once-weekly 400-mg doses over 1 h on days 10 and 15. Due to a short delay in the availability of the investigation study drug, the second once-weekly dose of rezafungin and the second set of oral substrate drugs were administered on day 10 instead of day 8, although the time between doses remained sufficient for all originally planned PK samplings through 96 h postdose and for the adequate washout of the substrate drugs. The total duration of treatment was up to 89 days, including 45 days of screening and 44 days of treatment in the CRU.
# In study 1, predose PK blood samples were collected on each dosing day ≤60 min prior to the administration of the substrate drugs with or without rezafungin. Multiple blood samples were collected relative to each dose, with collection times ranging from 15 min to 168 h postdose, depending on the PK profile of each probe substrate drug (Table S5). For study 2, multiple blood samples were collected, and the timing of collection varied according to the PK profile of each coadministered drug from predose to 96 h postdose (Table S6). PK blood samples were collected for rezafungin at sample times ranging from predose to 168 h postdose.
# For both studies, validated liquid chromatography-tandem mass spectrometry (LC-MS/MS) methods were used for PK assessments to analyze the concentrations of rezafungin and coadministered drugs. All plasma concentrations and actual blood sampling times were subjected to noncompartmental PK analysis. PK parameter calculations were performed using noncompartmental analysis (NCA) (Phoenix WinNonlin version 8.0 or higher). The PK parameters analyzed included Cmax; the time to reach the maximum observed plasma concentration (Tmax); AUC0–t (using the log-linear trapezoidal rule, where t was the last time point with a measurable concentration); AUC0–∞ (calculated as AUC0–t + Clast/λz); the AUC from 0 to 168 h (AUC0–168); the percentage of AUC0–∞ extrapolated (AUC%Extrap); the terminal elimination rate constant, determined by linear regression of the terminal linear segment of the log concentration-versus-time curve (λz); and the elimination half-life (t1/2), calculated as ln(2)/λz.
# The primary analysis of the drug interaction effect on substrate drugs following rezafungin administration was assessed by the ratio of the geometric least-squares (LS) mean of each substrate drug administered with rezafungin to that without rezafungin. […] PK parameters were statistically analyzed using an analysis of variance (ANOVA) model. […] However, noncompliance with these no-effect boundaries was not considered evidence of a significant DDI. Statistical analyses were performed using SAS (version 9.4) and the mixed procedure. Adverse events were descriptively summarized.
# [1] = oral metformin 500 mg, pitavastatin 2 mg (day 10) or caffeine 100 mg, efavirenz 50 mg, midazolam 2 mg, digoxin 0.25 mg (day 15) with i.v. rezafungin 400 mg
# [2] = oral repaglinide 1 mg, metformin 500 mg, pitavastatin 2 mg, caffeine 100 mg, efavirenz 50 mg, midazolam 2 mg or digoxin 0.25 mg without rezafungin
# [3] = Study 1, rezafungin 400 mg i.v. (day 10 or 15)
# [4] = oral repaglinide 1 mg with i.v. rezafungin 600 mg (day 1)
# [5] = Study 1, from geometric mean ratio
# [6] = Study 1, rezafungin 600 mg i.v.
# [7] = oral rosuvastatin 5 mg with i.v. rezafungin 400 mg (day 10)
# [8] = oral tacrolimus 5 mg or rosuvastatin 5 mg without rezafungin
# [9] = Study 1, AUC0–t and AUC0–∞, from geometric mean ratio
# [10] = oral tacrolimus 5 mg with i.v. rezafungin 600 mg (day 1)
SMILES,"AUC0–t, geometric LSM value, + rezafungin [1]","AUC0–∞, geometric LSM value, + rezafungin [1]","Cmax, geometric LSM value, + rezafungin [1]","AUC0–t, geometric LSM value, alone [2]","AUC0–∞, geometric LSM value, alone [2]","Cmax, geometric LSM value, alone [2]",Change in exposure of the oral probe drug on coadministration of i.v. rezafungin vs dosing alone (Study 1),"Observation, Cmax (change with rezafungin relative to drug alone) (Study 1)","Observation, AUC (change with rezafungin relative to drug alone) (Study 1)","AUC0–t, geometric mean ratio (drug + rezafungin / drug alone) [3]","AUC0–∞, geometric mean ratio (drug + rezafungin / drug alone) [3]","Cmax, geometric mean ratio (drug + rezafungin / drug alone) [3]",other results
Cn1c(=O)c2c(ncn2C)n(C)c1=O [Caffeine],"18,475.36 ng · h/mL","20,853.11 ng · h/mL","2,232.88 ng/mL","17,230.22 ng · h/mL","18,897.70 ng · h/mL","2,075.44 ng/mL",did not result in statistically significant changes,"↔ (no change (the ratio of the PK parameter value varied by up to ~10%, and the 90% CI was within 80 to 125%))","↔ (no change (the ratio of the PK parameter value varied by up to ~10%, and the 90% CI was within 80 to 125%))",107.23%,110.35%,107.59%,–
CN(C)C(=N)N=C(N)N [Metformin],"7,257.55 ng · h/mL","7,373.31 ng · h/mL","1,115.98 ng/mL","7,333.63 ng · h/mL","7,446.67 ng · h/mL","1,074.27 ng/mL",did not result in statistically significant changes,"↔ (no change (the ratio of the PK parameter value varied by up to ~10%, and the 90% CI was within 80 to 125%))","↔ (no change (the ratio of the PK parameter value varied by up to ~10%, and the 90% CI was within 80 to 125%))",98.96%,99.02%,103.88%,–
O=C(O)C[C@H](O)C[C@H](O)/C=C/c1c(C2CC2)nc2ccccc2c1-c1ccc(F)cc1 [Pitavastatin],81.54 ng·h/mL,90.87 ng·h/mL,35.72 ng/mL,77.44 ng·h/mL,85.78 ng·h/mL,36.23 ng/mL,did not result in statistically significant changes,"↔ (no change (the ratio of the PK parameter value varied by up to ~10%, and the 90% CI was within 80 to 125%))","↔ (no change (the ratio of the PK parameter value varied by up to ~10%, and the 90% CI was within 80 to 125%))",105.30%,105.93%,98.59%,–
CCOc1cc(CC(=O)N[C@@H](CC(C)C)c2ccccc2N2CCCCC2)ccc1C(=O)O [Repaglinide],–,–,–,20.25 ng·h/mL,21.74 ng·h/mL,11.86 ng/mL,–,"↔ (no change (the ratio of the PK parameter value varied by up to ~10%, and the 90% CI was within 80 to 125%))",–,–,–,–,"AUC0–t, geometric LSM value, + rezafungin [4]: 23.47 ng·h/mL; AUC0–∞, geometric LSM value, + rezafungin [4]: 25.16 ng·h/mL; Cmax, geometric LSM value, + rezafungin [4]: 12.13 ng/mL; Magnitude of increase in AUC0–∞ with rezafungin vs drug alone [5]: ~16%; AUC0–t, geometric mean ratio (drug + rezafungin / drug alone) [6]: 115.87%; AUC0–∞, geometric mean ratio (drug + rezafungin / drug alone) [6]: 115.75%; Cmax, geometric mean ratio (drug + rezafungin / drug alone) [6]: 102.26%"
C[C@H]1O[C@@H](O[C@H]2[C@@H](O)C[C@H](O[C@H]3[C@@H](O)C[C@H](O[C@H]4CC[C@@]5(C)[C@H](CC[C@@H]6[C@@H]5C[C@@H](O)[C@]5(C)[C@@H](C7=CC(=O)OC7)CC[C@]65O)C4)O[C@@H]3C)O[C@@H]2C)C[C@H](O)[C@@H]1O [Digoxin],–,–,–,–,–,–,did not result in statistically significant changes,–,–,–,–,–,–
CC(C)c1nc(N(C)S(C)(=O)=O)nc(-c2ccc(F)cc2)c1/C=C/[C@@H](O)C[C@@H](O)CC(=O)O [Rosuvastatin],–,–,–,–,–,–,–,–,–,115.13%,113.55%,111.82%,"AUC0–t, geometric LSM value, + rezafungin [7]: 31,027.38 pg · h/mL; AUC0–∞, geometric LSM value, + rezafungin [7]: 32,386.11 pg · h/mL; Cmax, geometric LSM value, + rezafungin [7]: 3,683.66 pg/mL; AUC0–t, geometric LSM value, alone [8]: 26,949.43 pg · h/mL; AUC0–∞, geometric LSM value, alone [8]: 28,521.34 pg · h/mL; Cmax, geometric LSM value, alone [8]: 3,294.35 pg/mL; Magnitude of increase in AUC with rezafungin vs drug alone [9]: ~15%; Magnitude of increase in AUC0–∞ with rezafungin vs drug alone [5]: approximately 14%; Magnitude of increase in Cmax with rezafungin vs drug alone [5]: ~12%"
C=CC[C@@H]1/C=C(\C)C[C@H](C)C[C@H](OC)[C@H]2O[C@@](O)(C(=O)C(=O)N3CCCC[C@H]3C(=O)O[C@H](/C(C)=C/[C@@H]3CC[C@@H](O)[C@H](OC)C3)[C@H](C)[C@@H](O)CC1=O)[C@H](C)C[C@@H]2OC [Tacrolimus],–,–,–,–,–,–,–,"↔ (no change (the ratio of the PK parameter value varied by up to ~10%, and the 90% CI was within 80 to 125%))",–,–,–,–,"AUC0–t, geometric LSM value, alone [8]: 309,698.20 pg · h/mL; AUC0–∞, geometric LSM value, alone [8]: 328,990.49 pg · h/mL; Cmax, geometric LSM value, alone [8]: 30,489.62 pg/mL; AUC0–t, geometric LSM value, + rezafungin [10]: 266,002.13 pg · h/mL; AUC0–∞, geometric LSM value, + rezafungin [10]: 283,328.47 pg · h/mL; Cmax, geometric LSM value, + rezafungin [10]: 28,909.40 pg/mL; Magnitude of decrease in AUC with rezafungin vs drug alone [9]: ~14%; AUC0–t, geometric mean ratio (drug + rezafungin / drug alone) [6]: 85.89%; AUC0–∞, geometric mean ratio (drug + rezafungin / drug alone) [6]: 86.12%; Cmax, geometric mean ratio (drug + rezafungin / drug alone) [6]: 94.82%"
O=C1Nc2ccc(Cl)cc2[C@@](C#CC2CC2)(C(F)(F)F)O1 [Efavirenz],"7,698.46 ng · h/mL","16,156.14 ng · h/mL",300.17 ng/mL,"7,557.26 ng · h/mL","14,368.15 ng · h/mL",299.30 ng/mL,did not result in statistically significant changes,"↔ (no change (the ratio of the PK parameter value varied by up to ~10%, and the 90% CI was within 80 to 125%))","↔ (no change (the ratio of the PK parameter value varied by up to ~10%, and the 90% CI was within 80 to 125%))",101.87%,112.44%,100.29%,–
